Reference: PubChem BioAssay AID330 (DTP/NCI, 2004)
“And” between values parts separate entries of the source, which are not always exact repeats. Equal entries are not always repeated. Inconclusive results and toxic doses are left out. The calls were made as follows: active = survival T/C of 150% or more; inactive = T/C below 125% in these data.

Test system: P388 leukemia ip, CD2F1 mice, survival T/C
Experiment: NCI In Vivo Anticancer Drug Screen. Data for tumor model P388 Leukemia (intraperitoneal) in CD2F1 (CDF1) mice
Details: endpoint: median survival time, higher = longer survival
How it was run: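 Mice carrying the transplanted tumor received test compound or vehicle. Survival was recorded in each group, and the value is the treated-group measurement divided by that of the vehicle-treated control group.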

[1] = dose: 100.0 mg/kg/injection, schedule: Q01DX001 (ip), vehicle: Klucel (hydroxypropylcellulose) (HPC)
[2] = dose: 200.0 mg/kg/injection, schedule: Q01DX001 (ip), vehicle: Klucel (hydroxypropylcellulose) (HPC)
[3] = dose: 400.0 mg/kg/injection, schedule: Q01DX001 (ip), vehicle: Klucel (hydroxypropylcellulose) (HPC)
[4] = dose: 60.0 mg/kg/injection, schedule: Q01DX005 (ip), vehicle: saline with Tween-80
[5] = dose: 120.0 mg/kg/injection, schedule: Q01DX005 (ip), vehicle: saline with Tween-80
[6] = dose: 240.0 mg/kg/injection, schedule: Q01DX005 (ip), vehicle: saline with Tween-80
[7] = dose: 50.0 mg/kg/injection, schedule: Q01DX005 (ip), vehicle: saline
[8] = dose: 100.0 mg/kg/injection, schedule: Q01DX005 (ip), vehicle: saline
[9] = dose: 100.0 mg/kg/injection, schedule: Q04DX002 (ip), vehicle: saline
[10] = dose: 50.0 mg/kg/injection, schedule: Q01DX005 (ip), vehicle: Klucel (hydroxypropylcellulose) (HPC)

Measured: T/C

N#CC1CCCC(c2ccccc2)(C2CCCCC2)C1=O (stereo unspecified)
inactive: [1] 99 % of control | [2] 97 % of control | [3] 103 % of control

O=C(/C(=C(/[O-])C(F)(F)F)[n+]1cccc2ccccc21)C(F)(F)F
inactive: [4] 104 % of control | [5] 91 % of control | [6] 99 % of control

COc1ccc(C2NC(=S)NC(C)=C2C(N)=O)cc1 (stereo unspecified)
inactive: dose: 60.0 mg/kg/injection, schedule: Q01DX005 (ip), vehicle: Klucel (hydroxypropylcellulose) (HPC) 101 % of control | dose: 120.0 mg/kg/injection, schedule: Q01DX005 (ip), vehicle: Klucel (hydroxypropylcellulose) (HPC) 95 % of control | dose: 240.0 mg/kg/injection, schedule: Q01DX005 (ip), vehicle: Klucel (hydroxypropylcellulose) (HPC) 96 % of control

CCN1C(=O)CC(NC2CC(OC3C[C@](O)(C(C)=O)Cc4c(O)c5c(c(O)c43)C(=O)c3c(OC)cccc3C5=O)OC(C)C2O)C1=O (stereo partly specified)
inactive: dose: 6.25 mg/kg/injection, schedule: Q04DX003 (ip), vehicle: water 115 % of control | dose: 12.5 mg/kg/injection, schedule: Q04DX003 (ip), vehicle: water 103 % of control | dose: 25.0 mg/kg/injection, schedule: Q04DX003 (ip), vehicle: water 105 % of control | dose: 50.0 mg/kg/injection, schedule: Q04DX003 (ip), vehicle: water 105 % of control

CCN(CC)CCOCC1CC2C(C=C1C)C2(C)C (stereo unspecified)
inactive: [7] 107 % of control | [8] 98 % of control

CCN(CC)Cc1cc(Nc2nc(/C=C/c3ccc(Cl)cc3)nc(Cl)c2-c2ccc(Cl)cc2)ccc1O
inactive: dose: 25.0 mg/kg/injection, schedule: Q01DX001 (ip), vehicle: suspension in saline 107 % of control | dose: 50.0 mg/kg/injection, schedule: Q01DX001 (ip), vehicle: suspension in saline 111 % of control | [7] 111 % of control | dose: 100.0 mg/kg/injection, schedule: Q01DX001 (ip), vehicle: saline 103 % of control | dose: 100.0 mg/kg/injection, schedule: Q01DX001 (ip), vehicle: suspension in saline 100 % of control and 108 % of control | [8] 116 % of control | dose: 200.0 mg/kg/injection, schedule: Q01DX001 (ip), vehicle: saline 103 % of control | dose: 200.0 mg/kg/injection, schedule: Q01DX001 (ip), vehicle: suspension in saline 108 % of control and 97 % of control | dose: 200.0 mg/kg/injection, schedule: Q01DX005 (ip), vehicle: saline 103 % of control | dose: 400.0 mg/kg/injection, schedule: Q01DX001 (ip), vehicle: saline 103 % of control | dose: 400.0 mg/kg/injection, schedule: Q01DX001 (ip), vehicle: suspension in saline 108 % of control and 87 % of control

N#CCc1c(F)c(F)c(F)c(F)c1F
inactive: dose: 30.0 mg/kg/injection, schedule: Q01DX005 (ip), vehicle: saline with Tween-80 100 % of control | [4] 99 % of control and 108 % of control

O=[N+]([O-])c1ccc(/C=[N+](\[O-])CCO)cc1
inactive: dose: 100.0 mg/kg/injection, schedule: Q01DX009 (ip), vehicle: saline with Tween-80 99 % of control | dose: 200.0 mg/kg/injection, schedule: Q01DX009 (ip), vehicle: saline with Tween-80 92 % of control

Cc1ccc(S(=O)(=O)N/N=c2\ccc3ccccc3n2C)cc1
inactive: [9] 100 % of control | dose: 200.0 mg/kg/injection, schedule: Q04DX002 (ip), vehicle: saline 99 % of control | dose: 400.0 mg/kg/injection, schedule: Q04DX002 (ip), vehicle: saline 101 % of control

Cc1cccc(NC(=O)Oc2ccc(C#N)cc2)c1
inactive: [4] 97 % of control | [5] 109 % of control | [6] 106 % of control

COc1cc2c(cc1C(C)c1ccc(F)cc1)OCO2 (stereo unspecified)
inactive: dose: 50.0 mg/kg/injection, schedule: Q01DX005 (ip), vehicle: saline with Tween-80 98 % of control | dose: 100.0 mg/kg/injection, schedule: Q01DX005 (ip), vehicle: saline with Tween-80 100 % of control | dose: 200.0 mg/kg/injection, schedule: Q01DX005 (ip), vehicle: saline with Tween-80 107 % of control

CSC(=Nc1cccc(C)c1)NC#N
inactive: dose: 50.0 mg/kg/injection, schedule: Q01DX009 (ip), vehicle: Klucel (hydroxypropylcellulose) (HPC) 103 % of control | dose: 100.0 mg/kg/injection, schedule: Q01DX009 (ip), vehicle: Klucel (hydroxypropylcellulose) (HPC) 106 % of control | dose: 200.0 mg/kg/injection, schedule: Q01DX009 (ip), vehicle: Klucel (hydroxypropylcellulose) (HPC) 105 % of control

Cc1c2cccc(Sc3ccccc3)c2c2c3c(cccc13)[S+](c1ccccc1)C2 (stereo unspecified)
inactive: dose: 6.25 mg/kg/injection, schedule: Q01DX009 (ip), vehicle: saline with Tween-80 113 % of control | dose: 12.5 mg/kg/injection, schedule: Q01DX009 (ip), vehicle: saline with Tween-80 115 % of control

Cc1ccc(/C=N\NC(=O)NN)cc1
inactive: dose: 25.0 mg/kg/injection, schedule: Q01DX005 (ip), vehicle: Klucel (hydroxypropylcellulose) (HPC) 97 % of control | [10] 102 % of control

Oc1ccc(O)c(-c2c(-c3ccccc3)cc3ccccn23)c1
inactive: [10] 102 % of control | dose: 100.0 mg/kg/injection, schedule: Q01DX005 (ip), vehicle: Klucel (hydroxypropylcellulose) (HPC) 104 % of control | dose: 200.0 mg/kg/injection, schedule: Q01DX005 (ip), vehicle: Klucel (hydroxypropylcellulose) (HPC) 104 % of control

CC(NC(=O)C(CO)NC(=O)c1cnc2ccccc2n1)C(=O)OC(C)(C)C (stereo unspecified)
inactive: dose: 60.0 mg/kg/injection, schedule: Q01DX005 (ip), vehicle: DMSO 98 % of control | dose: 120.0 mg/kg/injection, schedule: Q01DX005 (ip), vehicle: DMSO 99 % of control | dose: 240.0 mg/kg/injection, schedule: Q01DX005 (ip), vehicle: DMSO 109 % of control

O=C(CCl)c1cccnc1C(=O)O
inactive: dose: 25.0 mg/kg/injection, schedule: Q01DX009 (ip), vehicle: saline sonified 100 % of control | dose: 50.0 mg/kg/injection, schedule: Q01DX009 (ip), vehicle: saline sonified 100 % of control | dose: 100.0 mg/kg/injection, schedule: Q01DX009 (ip), vehicle: saline sonified 90 % of control

COc1ccc(Cl)[n+]([O-])n1
inactive: dose: 6.25 mg/kg/injection, schedule: Q04DX002 (ip), vehicle: Klucel (hydroxypropylcellulose) (HPC) 111 % of control | dose: 12.5 mg/kg/injection, schedule: Q04DX002 (ip), vehicle: Klucel (hydroxypropylcellulose) (HPC) 122 % of control | dose: 25.0 mg/kg/injection, schedule: Q04DX002 (ip), vehicle: Klucel (hydroxypropylcellulose) (HPC) 120 % of control | dose: 25.0 mg/kg/injection, schedule: Q04DX002 (ip), vehicle: saline 104 % of control | dose: 50.0 mg/kg/injection, schedule: Q04DX002 (ip), vehicle: Klucel (hydroxypropylcellulose) (HPC) 117 % of control | dose: 50.0 mg/kg/injection, schedule: Q04DX002 (ip), vehicle: saline 122 % of control | [9] 106 % of control

NNC(=O)c1nnc(N)o1
inactive: [4] 106 % of control | [5] 106 % of control | [6] 95 % of control

Cc1ccn2cc(CC(=O)O)nc2c1
inactive: [1] 104 % of control | [2] 100 % of control | [3] 96 % of control

COC(=O)C1=C/C=C\CN/C=C\1C(=O)OC
inactive: dose: 100.0 mg/kg/injection, schedule: Q04DX003 (ip), vehicle: alcohol 97 % of control | dose: 200.0 mg/kg/injection, schedule: Q04DX003 (ip), vehicle: alcohol 97 % of control | dose: 400.0 mg/kg/injection, schedule: Q04DX003 (ip), vehicle: alcohol 106 % of control
